Results as given in PMC13330650 (Matrix biology : journal of the International Society for …, 2025).
Where two headings read alike, the source gives them in different places.

How the values were obtained:
[1] = system: UGDH pS316 in LNCaP cells; assay: western blot of UGDH pS316 (anti-p-Akt substrate) in LNCaP whole cell lysates; type: cell-based, human
Excerpt: To validate the phosphorylation of UGDH by RSK2, S6K1, and SGK1 in a cellular context, we used a western analysis that capitalized on the general reactivity of an antibody generated against the phosphorylated AGC kinase motif (RxRxxpS/T) for targets of Akt, which is also a member of this kinase family. To validate the assay, we first compared phosphorylation of S316 in the in vitro kinase assay using purified recombinant UGDH. […] We further validated using serum starved LNCaP cells treated with EGF to stimulate activity of RSK2 [26] and S6K1 [27], or DHT to activate SGK1 [28], prior to lysate harvest.
(§1) Cell treatments were conducted as follows, except where described. To stimulate phosphorylation of UGDH at S316 for Western blot analysis, cells were cultured in replete medium until they reached 70 % confluence. Seventy-two hours prior to harvest, medium was replaced with phenol-red-free media containing 5 % CS-FBS to reduce androgen signaling. Twenty-four hours prior to harvest, medium was replaced with phenol-red-free media containing 10 % CS-FBS plus 10 nM DHT or vehicle control. EGF (20ng/mL) or vehicle control were added to cell media twenty minutes prior to harvest. For assessment of UGDH pS316 in these conditions with kinase inhibition, assays were repeated with kinase inhibitors added alongside EGF, DHT, and controls. Kinase inhibitor treatment concentrations were optimized based on published efficacy ranges and the following were used for all assays: BIX02565 (20 μM), PF4708671 (20 μM), GSK650394 (40 μM). Proliferation assays were performed with 10 μM enzalutamide (enz) added as described below, and 3D assays were performed with 1 μM enz added during seeding as described. For click chemistry quantification of glycans in cells treated with 4-MU, 10 μM was added to cell medium during the addition of the click labeling reagents.
Media were aspirated from cells, and a portion kept for analysis of HA content. Cells were washed with 2 mL cold 1x PBS, scraped into 1 mL of cold 1xPBS, pelleted by centrifugation, and lysed with 1x RIPA buffer supplemented with 1x protease inhibitor cocktail. For analysis of phosphoprotein expression, 1x phosphatase inhibitor was added to the lysis buffer. Bradford assay was performed to quantify protein content of cell lysates. Blots were imaged and quantified through fluorescence emission using the Odyssey Infrared Imaging System (LI-COR Biosciences, Lincoln, NE, USA). β-tubulin or GAPDH were used to normalize protein expression. Each analysis was plotted for three technical replicates of a representative experiment that was repeated at least three times. Statistical significance was assessed by one-way ANOVA followed by Tukey’s post hoc test for multiple comparisons.

[2] = system: LNCaP cell lines (VC, UGDH WT (OE), UGDH S316D, UGDH S316A); assay: proliferation assay (resazurin conversion to resorufin); type: cell-based, human
Procedure: as §1
For basal growth, 5 × 10^4 cells of each line were cultured in 24-well plates in standard steroid-replete media. Cell proliferation was measured daily for three days in replicate plates incubated for 2 h with media containing 10 % resazurin, after which fluorescence of the reduced product, resorufin, was measured (560Ex/590Em) in a microplate reader. To assess the impacts of kinase inhibition on cell growth, assays were repeated in the presence of inhibitors individually and in combination. For androgen-mediated cell growth with kinase inhibition, cells were cultured in 24-well plates in standard steroid-replete media. After 12 h, media were first removed and replaced with media containing 5 % CS-FBS (androgen-depleted conditions) for 48 h, and then media were removed and replaced with media containing 10 % CS-FBS plus 10 nM DHT and kinase inhibitors for another 48 h. Cell proliferation was measured daily as described above beginning when cells were switched to androgen free conditions. For enz treatments, cells were cultured in 24-well plates in standard steroid-replete media. After 12 h, media were replaced with replete media containing vehicle or 10 μM enz and vehicle or kinase inhibitors. For assays with kinase inhibition, cell proliferation was measured daily as described above beginning when cells were switched to the respective treatment condition. Cell numbers were extrapolated from fluorescence values by comparison to a standard curve for each respective cell line, and cell count at the end of the experiment was normalized to cell count on day zero directly following media replacement. All data were plotted for four technical replicates of experiments that were repeated three times. Statistical significance was assessed by one-way ANOVA followed by Tukey’s post hoc test for multiple comparisons.

## C[C@]12CCC(=O)C[C@@H]1CC[C@@H]1[C@@H]2CC[C@]2(C)[C@@H](O)CC[C@@H]12 [DHT, 5α-Androstan-17β-ol-3-one]
[1]
  stimulation of UGDH phosphorylation in whole cell lysates: Strong stimulation

## O=C(O)c1ccc(-c2c[nH]c3ncc(-c4ccccc4)cc23)cc1C1CCCC1 [GSK650394]
[1]; LNCaP cells, 10 nM DHT, GSK650394 40 μM
  DHT-stimulated p-UGDH band: virtually eliminated
[2]; GSK650394 40 μM, depleted 48 h, then serum and 10 nM DHT
  cell proliferation after serum and steroid depletion: significant impacts were observed
[2]; GSK650394 40 μM, replete medium, not shown
  cell proliferation in replete medium: did not abrogate cell proliferation

## CCc1cncnc1N1CCN(Cc2nc3ccc(C(F)(F)F)cc3[nH]2)CC1 [PF4708671]
[1]; LNCaP cells, EGF 20ng/mL, inhibitor 20 μM
  EGF-stimulated p-UGDH band intensity: significantly reduced
[2]; all lines, 3-day, inhibitor 20 μM, replete media
  cell number / proliferation, single kinase inhibitor: reduced proliferation in all lines

## EGF: growth factor used to stimulate activity of RSK2 and S6K1
[1]; serum starved LNCaP cells, EGF 20ng/mL or 10 nM DHT
  stimulation of UGDH phosphorylation in whole cell lysates: Strong stimulation
